The test system of assay [1] is multidrug resistant Dd2 strain of P. falciparum. The assay is described as follows: Isobolar analysis of combination with clopidol in vitro (FIG. 4). It is filed as cell-based, Plasmodium falciparum. How it is done: Values below the theoretical straight line of addition are considered to be indicative of synergism. This study was performed with the multidrug resistant Dd2 strain of P. falciparum.

For assay [2], the system named is Plasmodium parasitized red blood cells. Briefly: Oxygen consumption (respiration) by parasitized red blood cells (FIG. 3). The assay is classed as cell-based. Particulars: compared with atovaquone at equimolar concentrations. The text has this:
While not intending to be limited to any mechanism of action, it is contemplated that some of the presently described compounds may act through inhibiting parasite growth through inhibition of the enzyme cytochrome b.

For assay [3], the system named is multi-drug resistant strain (W2) of Plasmodium falciparum. Briefly: In vitro antimalarial activity, W2 strain. It is filed as cell-based. The note with it: read-out: IC50 against multi-drug resistant strain (W2). On the procedure:
(§1) Four different laboratory strains of P. falciparum were cultured in human erythrocytes by standard methods under a low oxygen atmosphere (5% O2, 5% CO2, 90% N2) in an environmental chamber. The culture medium was RPMI 1640, supplemented with 25 mM Hepes buffer, 25 mg/liter gentamicin sulfate, 45 mg/liter hypoxanthine, 10 mM glucose, 2 mM glutamine, and 0.5% Albumax II (complete medium). The parasites were maintained in fresh human erythrocytes suspended at a 2% hematocrit in complete medium at 37° C. Stock cultures were sub-passaged every 3 to 4 days by transfer of infected red cells to a flask containing complete medium and uninfected erythrocytes.
In vitro antimalarial activity of the test compounds was assessed by a fluorescence-based method described previously (Smilkstein et al., 2004, Antimicrobial Agents and Chemotherapy, Vol. 48, pgs. 1803-1806) (reference format?). […]
Automated pipeting and dilution was carried out by a programmable Precision 2000 robotic station (Bio-Tek, Winooski, Vt.). […] After this period, the SyBrGreen I dye-detergent mixture (100 μl) was added and the plates were incubated at room temperature for an hour in the dark and then placed in a 96-well fluorescence plate reader (Gemini-EM, […]) for analysis with excitation and emission wavelength bands centered at 497 and 520 nm, respectively.

The test system of assay [4] is drug susceptible (D6) strain of Plasmodium falciparum. The assay is described as follows: In vitro antimalarial MSF (SyBrGreen I fluorescence) assay, D6 strain. It is filed as cell-based. How it is done: as §1
In vitro antimalarial activity of the test compounds was assessed by a fluorescence-based method described previously (Smilkstein et al., 2004, Antimicrobial Agents and Chemotherapy, Vol. 48, pgs. 1803-1806) (reference format?). The studies were set up in triplicate in 96 well plates with two-fold dilutions of each test compound across the plate in a total volume of 100 μl and at a final red blood cell concentration of 2% (v/v). Stock solutions of each drug were prepared by dissolving in DMSO at 10 mM. […] In every case, an additional determination was performed to ensure bracketing of the IC50 value by at least an order of magnitude.
Automated pipeting and dilution was carried out by a programmable Precision 2000 robotic station (Bio-Tek, Winooski, Vt.). An initial parasitemia of 0.2% was attained by addition of normal uninfected red cells to a stock culture of asynchronous parasite infected red cells (PRBC). The plates were incubated for 72 hrs at 37° C. in an atmosphere of 5% CO2, 5% O2, and 90% N2. After this period, the SyBrGreen I dye-detergent mixture (100 μl) was added and the plates were incubated at room temperature for an hour in the dark and then placed in a 96-well fluorescence plate reader (Gemini-EM, […]) for analysis with excitation and emission wavelength bands centered at 497 and 520 nm, respectively.

What is called IC50 is the point on the concentration scale where inhibition reaches its midpoint.

Turning to `COc1ccc2c(=O)c(CCCCCC(F)(F)F)c(C)[nH]c2c1` [2-methyl-3-(6,6,6-trifluorohexyl)-7-methoxy-4(1H)-quinolone], the interaction with clopidol entry in assay [1] is “acting in synergy with clopidol”. In addition, in assay [2], the “inhibition of oxygen consumption (respiration)” value is “inhibiting oxygen consumption by Plasmodium parasitized red blood cells in similar fashion to atovaquone”.
For the compound `COc1ccc2c(=O)c(CCCCCCCCCCC(F)(F)F)c(C)[nH]c2c1` [No. 45, 2-methyl-3-(11,11,11-trifluoro-undecy1)-7-methoxy-4(1H)-quinolone], the IC50 in assay [3] and in assay [4] (read-out: IC50 against drug sensitive (D6) strain) was around 0.2 nM each time. Also, in assay [4] (compared to IC50 of the parent compound without the QZ side chain), the “improvement of antimalarial potency by the QZ group” value is recorded as “more than 1,000 fold”.

For the origin of these results see patent US7829578B1, “Aromatic ketones and uses thereof” (Oregon Health & Science University, priority 2005, dated 2010).
